Assay results as given in publication PMC12057357, “Population pharmacokinetics study on nebulized and intravenous administration of polymyxin B in patients with pneumonia caused by multidrug-resistant gram-negative bacteria” (Antimicrobial Agents and Chemotherapy, 2025).
Bridge positions count the residues as written; N and C are the ends. Square brackets hold non-standard residues; d marks the D form. Peptide text beside a SMILES is read from it. * marks the point of attachment. X1 = CC[C@H](C)CCCCC(=O)*; Dab = NCC[C@H](N)C(=O)O

Columns and labels:
[1] = tested on: Pseudomonas aeruginosa; design: method as in PMID 28031207; conditions: ELF; cited from earlier work
[2] = plasma; cited from earlier work
Excerpt: (§1) Monte Carlo simulations were used to determine the probability of target attainment (PTA), aiding in the selection of the optimal dosage regimen. According to consensus guidelines, the fAUC/MIC is the most relevant PK/PD index associated with bacterial killing ([11]). In this study, we evaluated the PTA of fAUC/MIC across different dosage regimens in cases of pathogenic infection with varying MIC values to better understand the optimal treatment approach. The preclinical data on PMB are limited, and its in vitro activities are similar to those of colistin ([11], [27]). Consequently, some data ...

[3] = tested on: Acinetobacter baumannii (ATCC 19606, 248–01-C.248, and N-16870.213); conditions: cited from earlier work
[4] = tested on: extensively drug-resistant GNB; conditions: cited from earlier work
Experimental: While an IV loading dose enhances early plasma exposure of PMB, it has minimal impact on early ELF exposure. […] Currently, the dosing regimen for PMB nebulization in clinical practice is predominantly empirical, typically involving doses of 25 or 50 mg administered twice daily ([19][–][21]). In a PK analysis of 105 patients ...

[5] = tested on: Pseudomonas aeruginosa (ATCC 27853, PAO1, and FADDI-PA022); conditions: cited from earlier work
Excerpt: as §1, with “[…] Such high fAUC/MIC” for “Consequently, some data”

[6] = tested on: human alveolar epithelial A549 cells; design: method as in PMID 34228550, PMID 28416543; conditions: cited from earlier work
[7] = Population pharmacokinetic model of PMB in plasma and ELF of patients with MDR-GNB pneumonia; format: in vivo, human
Experimental: This was a single-center, prospective study conducted between January 2022 and October 2024 at Fujian Medical University Union Hospital. […] Patients with severe bronchoconstriction, refractory hypoxemia, pregnancy, or those undergoing continuous renal replacement therapy were excluded.
IV PMB was administered according to the manufacturer’s instructions: a loading dose of 100–150 mg ([…]) followed by maintenance doses of 40–75 mg every 12 h, with an infusion time of approximately 1 h. The decision to administer PMB and its dosing regimen was made by the medical team. Concurrently, selected patients received nebulized PMB at a dose of 25 mg dissolved in 5 mL of half-normal sterile water for injection every 12 h via vibration mesh nebulizer or jet nebulizer over 15 min. Eligible patients received nebulized PMB for 3 days for the treatment of pneumonia. During nebulization, ventilation was performed at a constant flow, targeting an inspiration-to-expiration ratio of 0.5. The respiratory rate was set at 18 breaths/min; the tidal volume was set at 8 mL/kg; and the positive end-expiratory pressure was set at 6 cmH2O.
For all patients, when the PMB concentration in the plasma and lungs reached a steady state (after at least four doses), one to six samples were collected into EDTA tubes at the following time points: 0 h before administration and 1, 2, 4, 6, 8, and 12 h after administration. The plasma and bronchoalveolar lavage (BAL) fluid samples for drug assays were centrifuged at 12,000 rpm for 5 min. The supernatant was then collected and stored at −80°C until analysis.
ELF is obtained through BAL. This procedure involves inserting and wedging a fiberoptic bronchoscope into a subsegment of the middle or lower lung lobe. Before performing BAL, the patient’s CT scan is reviewed to select the affected lung segment for lavage. The lavage is performed at the same location using a 0.9% saline solution. The aspirate from the first lavage is usually collected separately and discarded due to potential severe contamination with cells from the proximal airway. Subsequent recovered aspirates are combined, and their volume is measured and recorded. The remaining volume of BAL fluid is immediately centrifuged to separate the supernatant and the cell pellet. Samples used for measuring urea and drug concentrations in the supernatant are collected and frozen until analysis. The concentration of PMB in ELF can be determined using urea as an endogenous biomarker ([4], [8]). Urea concentration in plasma and ELF is typically the same because urea is […], has a low molecular weight, and can rapidly diffuse to establish equilibrium across the capillary-alveolar membrane. By measuring the urea concentration in both BAL fluid and plasma, the dilution factor can be determined, allowing for the calculation of the actual drug concentration in ELF (Eq.1):
(1) CELF,PMB=CBAL, PMB×Cplasma,urea /CBAL,urea.
As polymyxin B1 and B2 structures, molecular weights, pharmacological activities, and PK properties were […], their plasma concentrations were summed to obtain total PMB concentrations ([24]). Concentrations of PMB were determined by a validated liquid chromatography–tandem mass spectrometry assay with minor modifications ([25]). […] For plasma, intra- and interday accuracies ranged from 80.6% to 114.9%, with a coefficient of variation (CV) of 2.6%–14.8%. For BAL fluid, accuracy ranged from 82.3% to 114.3%, with a CV of 3.4%–13.7%. All sample concentrations exceeded the lower limit of quantification (LLOQ).
PopPK analyses were conducted using a non-linear mixed-effect modeling program, NONMEM, version 7.5 (Icon Development Solutions, USA). Model development utilized first-order conditional estimation to assess the interaction between patient variability and residual variability. One- or two-compartment structural models were evaluated for both ELF and plasma drug exposure to establish the basic model that best fitted the original data. […]

[8] = cited from earlier work
Excerpt: The issue of dosage adjustments based on renal function has been a contentious topic ...

[9] = bootstrap median, 1,000 resampled data sets

## colistin
[1]
  fAUCELF/MIC targets: 684–1,050

## CC[C@H](C)CCCCC(=O)N[C@@H](CCN)C(=O)N[C@H](C(=O)N[C@@H](CCN)C(=O)N[C@H]1CCNC(=O)[C@H]([C@@H](C)O)NC(=O)[C@H](CCN)NC(=O)[C@H](CCN)NC(=O)[C@H](CC(C)C)NC(=O)[C@@H](Cc2ccccc2)NC(=O)[C@H](CCN)NC1=O)[C@@H](C)O [PMB, Polymyxin B] (X1-[Dab]T[Dab][Dab][Dab][dF]L[Dab][Dab]T; lactam 4-C)
[2]
  unbound fraction: 0.42
[3]
  AUC/MIC targets in ELF associated with antibacterial activity: 326 to 989
[4]; P = 0.002
  bacterial clearance time, inhalation group vs IV group: significantly shorter
[4]; P = 0.025
  risk of acute kidney injury, inhalation group vs IV group: trend toward a reduced risk
[5]
  AUC/MIC targets in ELF associated with antibacterial activity: 1,326 to 1,506
[6]
  effect on human alveolar epithelial A549 cells: disrupt redox balance, mitochondrial beta-oxidation, and membrane lipid biosynthesis
[7]; [9]
  AGE on V3 (covariate effect): 1.28
  ALB on CL3 (covariate effect): −0.894
  CL1, central compartment clearance of plasma: 1.39 L/h
  CL2, intercompartmental clearance of plasma: 13.1 L/h
  CL3, central compartment clearance of ELF: 0.186 L/h
  CL4, intercompartmental clearance of ELF: 3.44 L/h
  F, bioavailability of nebulization: 0.556
  Q, intercompartmental clearance between compartments 1 and 3: 0.03 L/h
  V1, central compartment distribution volume of plasma: 27.59 L
  V2, intercompartmental (peripheral) distribution volume of plasma: 17.11 L
  V3, central compartment distribution volume of ELF: 0.896 L
  V4, intercompartmental (peripheral) distribution volume of ELF: 4.33 L
[7]; epithelial lining fluid, 76 patients, median (interquartile range), nebulized PMB 25 mg q12h alone or with IV PMB, LC-MS/MS, urea-corrected BAL
  AUC24h, ELF: 52.5 (35.3–102.8) mg·h/L
[7]; final PopPK model estimate
  AGE on V3 (covariate effect): 1.28
  ALB on CL3 (covariate effect): −0.893
  CL2, intercompartmental clearance of plasma: 13.11 L/h
  CL3, central compartment clearance of ELF: 0.186 L/h
  CL4, intercompartmental clearance of ELF: 3.44 L/h
  F, bioavailability of nebulization (fraction of drug reaching the lungs): 0.557
  Q, intercompartmental clearance between compartments 1 and 3 (plasma and ELF): 0.03 L/h
  V1, central compartment distribution volume of plasma: 27.6 L
  V2, intercompartmental (peripheral) distribution volume of plasma: 17.1 L
  V3, central compartment distribution volume of ELF: 0.896 L
  V4, intercompartmental (peripheral) distribution volume of ELF: 4.35 L
[7]; human, plasma, final PopPK model estimate, NONMEM, 76 patients, steady state, read-out: CL1, central compartment clearance of plasma (converted)
  clearance: 23.2 mL/min
[7]; plasma, median (interquartile range), nebulized PMB alone or with IV PMB, LC-MS/MS
  AUC24h, plasma: 35.0 (22.0–54.2) mg·h/L
[8]
  average urine recovery rate: 23.56%
[8]; range across previous PMB two-compartment models
  CL1: 1.19 to 2.63 L/h
[8]; range across previous studies
  CL2: 1.98 to 13.83 L/h
  V1: 6.35 to 33.77 L
  V2: 7.92 to 78.2 L
[8]; range, ref 39 (Sandri et al.)
  urinary recovery rate: 0.98% to 17.4%
